Reference: patent US8609659B2, “Substituted 3,8-diazabicyclo[3.2.1]octane compounds” (Neuroscienze Pharmaness S.C.A.R.L., priority 2009, dated 2013)
Like-named read-outs stand apart in the source and are kept apart here.

Experiments:
[1] = target: T1, δ opioidergic receptors (Mus musculus, UniProt P32300); experiment: Ex-vivo model, isolated organ: electrically induced contractions of mouse vas deferens; conditions: for inhibition: read-out: % contraction inhibition after addition of ICI 17.4864; for % contraction inhibition: no antagonist, average of 7 experiments; for activity towards the delta opioid receptors: inhibition of contractions antagonized by ICI 17.4864 or Naltrindol
T1 construct: from tissue; host or cells: CD1 mouse vas deferens segments (isolated organ)
Procedure: Said effect is antagonized by selective antagonists of the delta opioid receptors, for example the compounds ICI 17.4864 and Naltrindol.
For evaluating the activity of the compounds of the invention on the delta opioid receptors, the compounds respectively obtained in Examples 6.1 and 6.9 were subjected to tests carried out on the basis of the method described by E. J. Bilsky et al. (J.P.E.T., 1995 April; 273 (1):359-366). The experiments were carried out on samples of vas deferent segments taken from CD1 mice (25-30 grams) immediately after sacrifice. After the explant, the vas deferent segments were transferred in a Petri dish containing a Krebs oxygenated solution (118.2 mM NaCl, 4.75 mM KCl, 1.19 mM KH2PO4, 25.0 mM NaHCO3, 11.0 mM glucose, and 2.54 mM CaCl2) in order to proceed to the cleaning of the samples and their subsequent dissection in segments. Segments of vas deferens were so obtained having a length of 1.0-1.2 cm. They were thus immersed in tubs containing 10 ml of an oxygenated Krebs solution (95% O2 and 5% CO2) and kept at a temperature of 37° C. One end of the vas deferens segment was attached to a fixed support, at the tub bottom, while the other end was connected to an isometric force transducer (WPI Fort10, Biological Instruments, Besozzo, Italy) for the registration of the contractions induced by electric stimuli. The samples were then allowed to equilibrate for 60 minutes, changing the Krebs solution every 15 minutes. The samples were then subjected to treatment cycles wherein the electrical stimulation lasted 3 minutes, with an interval of 15 minutes before the following stimulation. The isometric contractions were evoked with sequences of 3 pulses (sequence frequency 0.1 Hz; pulse duration 2 ms) by means of platinum electrodes placed at the sides of the samples. The electrical stimuli were generated by a Grass S88K stimulator and amplified (multiplexing pulse booster 316S; Ugo Basile, Comerio, Italy). The musculature contractions of the vas deferens were monitored by a computer, recorded and analyzed by an analysis system (PowerLab 400). The compounds of the invention were added to the vas deferens in cumulative doses, in the absence or in the presence of one of the following antagonists of the delta opioid receptors: ICI 17.4864 and Naltrindol.
The effect of the tested compounds on the contractions of vas deferens musculature was expressed in percent, calculated by referring the amplitude of the contractions induced by the electrical stimulations after each addition of the test compound to the amplitude of the contractions obtained in the absence of the same compound (100%).
The results obtained with the compounds of Examples 6.1 and 6.9 are reported, respectively, in Table 2 and in Table 3. The results are an average of the data obtained in seven different experiments.

[2] = target: T2, μ opioidergic receptors (Mus musculus, UniProt P42866); experiment: Radioreceptorial binding, μ opioidergic receptors ([3H]-DAMGO, mouse brain membranes); conditions: 1 nM [3H]-DAMGO, CD1 mouse brain membranes, 25° C., 60 minutes
T2 construct: from tissue; host or cells: CD1 mouse brain (excluding cerebellum) membranes

[3] = test system: mouse; type: in vivo; conditions: 5 mg/Kg i.p., average ± SEM of 6 animals
Procedure: In the Tail Flick test it is determined the time elapsed between the exposure of one part of the mouse tail (2 cm measured from the tail tip) to a small heat source and the time when the animal moves away the tail (Ruiu) S. et al. in J. Pharmacol. Exp. Ther.; 306 (1) (2003) 363-370). This time interval is automatically calculated by a specific equipment for the Tail-Flick test (Apparatus for the Tail Flick, Ugo Basile, Italy). The equipment is provided with an infrared lamp that is the heat regulatable source. For avoiding lesions to the tail tissues a maximum latency time has been fixed (cut-off=12 sec), after which the tail is moved away from the heat source.
The values of the latency time obtained in the experimentation were expressed in MPE % (maximum possible effect %), according to the formula:
[formula] wherein: Test Latency is the time in seconds elapsed before the animal moves away the tail from the heat source, Base Latency is the time in seconds elapsed before the same, untreated animal moves away the tail from the heat source.
The analgesic potency of the compound obtained in Example 6.1 was evaluated. The compound was solubilized in an aqueous solution (carrier), formed of a mixture of a physiological solution, ethanol and Cremophor® EL in the ratios by volume: 18.5:1.0:0.5. The blank or control was the carrier. The test compound was administered by intraperitoneal (i.p.) route, by using a solution volume to obtain a dose of 5 mg/kg.
The duration of the analgesic effect was evaluated by determining the MPE % values obtained at different times (20, 40, 60, 120 minutes) from administration of the compound and of the corresponding control (carrier).
Example 13 was repeated but using the compound synthesized in Ex. 6.9. The analgesic activity was evaluated at 30, 60, 120 and 240 minutes from the administration of the compound. The compound was administered at the dose of 5 mg/Kg after solubilization in an aqueous solution (carrier) formed of physiological solution, ethanol and Cremophor® EL in the same ratios as indicated in Example 13.
In order to evaluate the property of the compounds of formula (I) in the modulation of the analgesic effect of morphine, the Tail Flick test was carried out by using either only morphine or morphine in association with the compound of Ex. 6.9. The procedure described in Ex. 13 was repeated by recording the MPE % values at different times from the administration of the tested compounds: 30, 60, 120 and 240 minutes.

[4] = compound 10^−6 moles/litre + NTI 5 × 10^−8 M
[5] = compound 10^−7 moles/litre + NTI 5 × 10^−8 M
[6] = compound 10^−8 moles/litre + NTI 5 × 10^−8 M
[7] = compound 10^−9 moles/litre + NTI 5 × 10^−8 M
[8] = compound 10^−10 moles/litre + NTI 5 × 10^−8 M
[9] = compound 10^−11 moles/litre + NTI 5 × 10^−8 M

T1 sequence (P32300 whole entry): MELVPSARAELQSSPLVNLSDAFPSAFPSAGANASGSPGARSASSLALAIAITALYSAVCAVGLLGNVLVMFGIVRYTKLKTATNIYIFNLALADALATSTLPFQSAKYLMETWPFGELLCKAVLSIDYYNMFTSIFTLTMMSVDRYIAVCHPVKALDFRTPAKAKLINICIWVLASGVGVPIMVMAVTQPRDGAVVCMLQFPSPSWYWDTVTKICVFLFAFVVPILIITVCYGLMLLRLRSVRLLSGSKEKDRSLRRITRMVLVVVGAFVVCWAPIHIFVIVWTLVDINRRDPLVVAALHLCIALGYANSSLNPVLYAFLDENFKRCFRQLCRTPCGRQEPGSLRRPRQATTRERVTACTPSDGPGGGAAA
T2 sequence (P42866 whole entry): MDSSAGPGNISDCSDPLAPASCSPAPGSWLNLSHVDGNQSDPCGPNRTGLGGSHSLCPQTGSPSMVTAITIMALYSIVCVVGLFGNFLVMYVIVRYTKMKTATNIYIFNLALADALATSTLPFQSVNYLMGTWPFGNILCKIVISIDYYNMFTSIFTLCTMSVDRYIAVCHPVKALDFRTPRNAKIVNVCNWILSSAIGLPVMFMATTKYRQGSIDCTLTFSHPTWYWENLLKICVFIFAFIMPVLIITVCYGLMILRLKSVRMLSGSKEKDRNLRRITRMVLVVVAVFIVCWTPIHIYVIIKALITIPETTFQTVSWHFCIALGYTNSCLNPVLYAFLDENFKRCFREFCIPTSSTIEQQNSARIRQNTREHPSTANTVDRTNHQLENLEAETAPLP

Q: What does the source list for `C=CCN1C2CCC1C1CCC2N1C(c1ccc(C(=O)N(CC)CC)cc1)c1cccc(O)c1` (stereo not drawn) [Example 6.9, 4-[(10-allyl-9,10-diazatricyclo[4.2.1.1^2,5]dec-9-yl)-(3-hydroxyphenyl)methyl]-N,N-diethylbenzamide]?
A: inhibition ([1]; compound 10^−6 moles/litre + ICI 17.4864 2 × 10^−6 M): 52.2%; % contraction inhibition after addition of Naltrindol NTI [1, 4]: 67.5%; % contraction inhibition ([1]; compound 10^−6 moles/litre): 85.0%; inhibition ([1]; compound 10^−7 moles/litre + ICI 17.4864 2 × 10^−6 M): 28.2%; % contraction inhibition after addition of Naltrindol NTI [1, 5]: 29.0%; % contraction inhibition ([1]; compound 10^−7 moles/litre): 83.0%; inhibition ([1]; compound 10^−8 moles/litre + ICI 17.4864 2 × 10^−6 M): 9.5%; % contraction inhibition after addition of Naltrindol NTI [1, 6]: 8.9%; % contraction inhibition ([1]; compound 10^−8 moles/litre): 70.0%; inhibition ([1]; compound 10^−9 moles/litre + ICI 17.4864 2 × 10^−6 M): 4%; % contraction inhibition after addition of Naltrindol NTI [1, 7]: 5.2%; % contraction inhibition ([1]; compound 10^−9 moles/litre): 40.0%; inhibition ([1]; compound 10^−10 moles/litre + ICI 17.4864 2 × 10^−6 M): 2.5%; % contraction inhibition after addition of Naltrindol NTI [1, 8]: 4.5%; % contraction inhibition ([1]; compound 10^−10 moles/litre): 17.0%; inhibition ([1]; compound 10^−11 moles/litre + ICI 17.4864 2 × 10^−6 M): 1.8%; % contraction inhibition after addition of Naltrindol NTI [1, 9]: 3.0%; % contraction inhibition ([1]; compound 10^−11 moles/litre): 7.5%; activity towards the delta opioid receptors [1]: agonist activity; Ki [2]: 0.02 ± 0.0005 µM; MPE % ([3]; 30 min): 30.1 ± 2.7%; MPE % ([3]; 60 min): 32.8 ± 10.0%; MPE % ([3]; 120 min): 18.5 ± 2.0%; MPE % ([3]; 240 min): 1.2 ± 0.6%

Q: With `C=CCN1C2CCC1C1CCC2N1C(c1ccc(C(=O)N(CC)CC)cc1)c1cccc(OC)c1` (stereo not drawn) [Example 6.1, 4-[(10-allyl-9,10-diazatricyclo[4.2.1.1^2,5]dec-9-yl)-(3-methoxyphenyl)methyl]-N,N-diethylbenzamide] as the molecule, how does the “% contraction inhibition after addition of Naltrindol NTI” value (from here on “% contraction inhibition after addition”) [1, 4] read?
A: The value was 41.0%.

Q: What about the “% contraction inhibition” value ([1]; compound 10^−6 moles/litre) of the same molecule?
A: The value was 86.0%.

Q: What about the “% contraction inhibition after addition” value [1, 5] of the same molecule?
A: The value was 24.9%.

Q: And the “% contraction inhibition” value ([1]; compound 10^−7 moles/litre)?
A: Its value is 71.5%.

Q: And the “% contraction inhibition after addition” value [1, 6]?
A: The value was 19.0%.

Q: What about the “% contraction inhibition” value ([1]; compound 10^−8 moles/litre) of the same molecule?
A: The value was 51.0%.

Q: What about the “% contraction inhibition after addition” value [1, 7] of the same molecule?
A: Its value is 11.5%.

Q: What about the “% contraction inhibition” value ([1]; compound 10^−9 moles/litre) of the same molecule?
A: Its value is 32.0%.

Q: What about the “% contraction inhibition after addition” value [1, 8] of the same molecule?
A: The value was 5.0%.

Q: What about the “% contraction inhibition” value ([1]; compound 10^−10 moles/litre) of the same molecule?
A: The value was 16.0%.

Q: And the “% contraction inhibition after addition” value [1, 9]?
A: The value was 4.0%.

Q: And the “% contraction inhibition” value ([1]; compound 10^−11 moles/litre)?
A: The value was 5.5%.

Q: What about the “activity towards the delta opioid receptors” value [1] of the same molecule?
A: Its value is “agonist activity”.

Q: And the Ki [2]?
A: Its Ki is 1.63 ± 0.186 µM.

Q: What about the MPE % ([3]; 20 min) of the same molecule?
A: Its MPE % is 15.1 ± 3.5%.

Q: What about the MPE % ([3]; 40 min) of the same molecule?
A: Its MPE % is 50.1 ± 12.0%.

Q: And the MPE % ([3]; 60 min)?
A: The MPE % was 20.0 ± 3.0%.

Q: And the MPE % ([3]; 120 min)?
A: The MPE % was 13.2 ± 2.8%.
